Assay results from USRE37781E1, “Substituted cyclic carbonyls and derivatives thereof useful as retroviral protease inhibitors” (DuPont Pharmaceuticals Company, priority 1991, dated 2002).
In brackets after ≈: the same amount, converted by molar mass. Read-outs that look alike come from different tables or passages of the source.

How the values were obtained:
HIV protease = molecular target: T1, HIV protease (Human immunodeficiency virus type 1 group M subtype B, UniProt P04585); test: biochemical; set-up: species or system HIV-1
T1 construct: plasmid containing HIV protease under the control of an inducible T7 promoter; made in house; host or cells: E. coli (inclusion bodies, T7 promoter)
Description: HIV Protease Inhibition Assay—Spectroscopic Method
Inclusion bodies were solubilized in 8M urea, 50 mM tris pH 8.0. Protease activity was recovered by dilution 20-fold into buffer containing 50 mM sodium acetate pH 5.5, 1 mM EDTA, 10% glycerol and 5% ethylene glycol. Enzyme was used at a final concentration of 1.0-10 ug/ml.
Stock solutions of 10 mM were prepared in DMSO.
All further dilutions were done in DMSO.

HIV-1 (RF) in MT-2 cells = test: microbe, parasite or virus in culture; format: cell-based
Method in brief: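 Read-out: gag and pol viral RNA captured by 5′-biotinylated oligonucleotides on streptavidin-coated wells, detected with alkaline phosphatase-linked reporter oligonucleotides, calibrated against BH10 in vitro transcripts. Virus stocks (RF, MN, IIIB) come from H9 cultures; MT-2 host cells kept in RPMI 1640, 5% FCS.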

[1] = Human immunodeficiency virus 1, MT2, Table 1c, read-out: IC90
[2] = Human immunodeficiency virus 1, MT2, Table 2A, read-out: IC90
[3] = Human immunodeficiency virus 1, MT2, second table headed Table 2A, read-out: IC90
[4] = second table headed Table 2A, read-out: Ki

Row | SMILES | melting point | Ki (HIV protease; Ki) | IC90 (HIV-1 (RF) in MT-2 cells; [1]) | further results
1 | O=C1N(CCN2CCOCC2)C(Cc2ccccc2)C(O)C(O)C(Cc2ccccc2)N1CCN1CCOCC1 (centres unmarked) [Example 1AA] | 70 to 75 °C | – | – | Ki (HIV protease; Table 1a, read-out: Ki): > 1000 nM
2 | CCCCCCCN1C(=O)N(CCCCCCC)C(Cc2ccccc2)C(O)C(O)C1Cc1ccccc1 (centres unmarked) [Example 1AB] | 100 to 101 °C | – | – | Ki (HIV protease; Table 1a, read-out: Ki): 10 to 1000 nM
3 | CCN1C(=O)N(CC)C(Cc2ccccc2)C(O)C(O)C1Cc1ccccc1 (centres unmarked) [Example 1AD] | 214 to 215 °C | – | – | Ki (HIV protease; Table 1a, read-out: Ki): 10 to 1000 nM
4 | C=C(C)CN1C(=O)N(CC(=C)C)C(Cc2ccccc2)C(O)C(O)C1Cc1ccccc1 (centres unmarked) [Example 1AJ] | 205 to 207 °C | – | – | Ki (HIV protease; Table 1a, read-out: Ki): < 10 nM
5 | CCCCCN1C(=O)N(CCCCC)C(Cc2ccccc2)C(O)C(O)C1Cc1ccccc1 (centres unmarked) [Example 1AK] | 125 to 127 °C | < 10 nM | – | –
6 | CC(C)CCCCCN1C(=O)N(CCCCCC(C)C)C(Cc2ccccc2)C(O)C(O)C1Cc1ccccc1 (centres unmarked) [Example 1AL] | 144 to 145 °C | 10 to 1000 nM | – | –
7 | CC(C)CCCN1C(=O)N(CCCC(C)C)C(Cc2ccccc2)C(O)C(O)C1Cc1ccccc1 (centres unmarked) [Example 1AM] | 120 to 122 °C | < 10 nM | – | –
8 | CC(C)CCCCN1C(=O)N(CCCCC(C)C)C(Cc2ccccc2)C(O)C(O)C1Cc1ccccc1 (centres unmarked) [Example 1AN] | 105 to 107 °C | 10 to 1000 nM | – | –
9 | C#CCN1C(=O)N(CC#C)C(Cc2ccccc2)C(O)C(O)C1Cc1ccccc1 (centres unmarked) [Example 1AP] | 198 to 200 °C | – | – | Ki (HIV protease; Table 1a, read-out: Ki): 10 to 1000 nM
10 | N#CN=C1N(CC2CC2)[C@H](Cc2ccccc2)[C@H](O)[C@@H](O)[C@@H](Cc2ccccc2)N1CC1CC1 [Example 1BS] | 211.2 °C | 10 to 1000 nM | < 10 µg/mL | –
11 | N#CN=C1N(Cc2ccc(OCc3ccccc3)cc2)C(Cc2ccccc2)C(O)C(O)C(Cc2ccccc2)N1Cc1ccc(OCc2ccccc2)cc1 (centres unmarked) [Example 1BT] | 90.1 °C | 10 to 1000 nM | > 100 µg/mL | –
12 | N#CN=C1N(Cc2ccc(O)cc2)C(Cc2ccccc2)C(O)C(O)C(Cc2ccccc2)N1Cc1ccc(O)cc1 (centres unmarked) [Example 1BU] | 103.3 °C | < 10 nM | < 10 µg/mL | –
13 | N#CN=C1N(CC2CCCC2)C(Cc2ccccc2)C(O)C(O)C(Cc2ccccc2)N1CC1CCCC1 (centres unmarked) [Example 1BV] | 99.7 °C | < 10 nM | < 10 µg/mL | –
14 | C=CCN1C(=NC#N)N(CC=C)C(Cc2ccccc2)C(O)C(O)C1Cc1ccccc1 (centres unmarked) [Example 1BW] | 70.2 °C | 10 to 1000 nM | 10 to 100 µg/mL (≈ 23.2 to 232 µM) | –
15 | CCCCN1C(=NC#N)N(CCCC)C(Cc2ccccc2)C(O)C(O)C1Cc1ccccc1 (centres unmarked) [Example 1BX] | 58.3 °C | < 10 nM | < 10 µg/mL | –
16 | N#CN=C1N(Cc2ccc3ccccc3c2)C(Cc2ccccc2)C(O)C(O)C(Cc2ccccc2)N1Cc1ccc2ccccc2c1 (centres unmarked) [Example 1BY] | 111.1 °C | 10 to 1000 nM | > 100 µg/mL | –
17 | N#CN=C1N(Cc2ccccc2)C(Cc2ccccc2)C(O)C(O)C(Cc2ccccc2)N1Cc1ccccc1 (centres unmarked) [Example 1BZ] | 94 °C | 10 to 1000 nM | < 10 µg/mL | –
18 | N#CN=C1N(Cc2cccc(OCc3ccccc3)c2)C(Cc2ccccc2)C(O)C(O)C(Cc2ccccc2)N1Cc1cccc(OCc2ccccc2)c1 (centres unmarked) [Example 1CA] | 75.2 °C | 10 to 1000 nM | > 100 µg/mL | –
19 | N#CN=C1N(Cc2ccc([N+](=O)[O-])cc2)C(Cc2ccccc2)C(O)C(O)C(Cc2ccccc2)N1Cc1ccc([N+](=O)[O-])cc1 (centres unmarked) [Example 1CB] | 130.3 °C | – | – | IC90 (HIV-1 (RF) in MT-2 cells; Human immunodeficiency virus 1, MT2): 10 to 100 µg/mL (≈ 16.1 to 161 µM); Ki (HIV protease; Ki, Table 1c, cyclic guanidines): 10 to 1000 nM
20 | N#CN=C1N(Cc2cccc(O)c2)C(Cc2ccccc2)C(O)C(O)C(Cc2ccccc2)N1Cc1cccc(O)c1 (centres unmarked) [Example 1CD] | 124 °C | < 10 nM | < 10 µg/mL | –
21 | N#CN=C1N(Cc2ccc(N)cc2)C(Cc2ccccc2)C(O)C(O)C(Cc2ccccc2)N1Cc1ccc(N)cc1 (centres unmarked) [Example 1CE] | 226.3 °C | 10 to 1000 nM | < 10 µg/mL | –

Row | SMILES | melting point | Ki (HIV protease; Ki) | IC90 (HIV-1 (RF) in MT-2 cells; [1]) | further results
22 | N#CN=C1N(Cc2cccc(N)c2)C(Cc2ccccc2)C(O)C(O)C(Cc2ccccc2)N1Cc1cccc(N)c1 (centres unmarked) [Example 1CF] | 114.4 °C | < 10 nM | < 10 µg/mL | –
23 | N#CN=C1N(Cc2cccc(C#N)c2)C(Cc2ccccc2)C(O)C(O)C(Cc2ccccc2)N1Cc1cccc(C#N)c1 (centres unmarked) [Example 1CH] | 108.5 °C | 10 to 1000 nM | < 10 µg/mL | –
24 | CC(C)=CCN1C(=NC#N)N(CC=C(C)C)C(Cc2ccccc2)C(O)C(O)C1Cc1ccccc1 (centres unmarked) [Example 1CI] | 72.9 °C | 10 to 1000 nM | < 10 µg/mL | –
25 | N#CN=C1N(CC2CCCCC2)C(Cc2ccccc2)C(O)C(O)C(Cc2ccccc2)N1CC1CCCCC1 (centres unmarked) [Example 1CJ] | 96.4 °C | < 10 nM | < 10 µg/mL | –
26 | N#CN=C1N(CC2CCC2)C(Cc2ccccc2)C(O)C(O)C(Cc2ccccc2)N1CC1CCC1 (centres unmarked) [Example 1CK] | 235.5 °C | < 10 nM | < 10 µg/mL | –
27 | CCCN1C(=NC#N)N(CCC)C(Cc2ccccc2)C(O)C(O)C1Cc1ccccc1 (centres unmarked) [Example 1CL] | 216.6 °C | 10 to 1000 nM | < 10 µg/mL | –
28 | CC(C)CCN1C(=NC#N)N(CCC(C)C)C(Cc2ccccc2)C(O)C(O)C1Cc1ccccc1 (centres unmarked) [Example 1CM] | 76.1 °C | 10 to 1000 nM | < 10 µg/mL | –
29 | N#CN=C1N(Cc2ccc(CO)cc2)C(Cc2ccccc2)C(O)C(O)C(Cc2ccccc2)N1Cc1ccc(CO)cc1 (centres unmarked) [Example 1CN] | 100.9 °C | 10 to 1000 nM | < 10 µg/mL | –
30 | N#CN=C1N(Cc2cccc(CO)c2)C(Cc2ccccc2)C(O)C(O)C(Cc2ccccc2)N1Cc1cccc(CO)c1 (centres unmarked) [Example 1CO] | 193.8 °C | < 10 nM | < 10 µg/mL | –
31 | N#CN=C1N(Cc2cccc(C=NO)c2)C(Cc2ccccc2)C(O)C(O)C(Cc2ccccc2)N1Cc1cccc(C=NO)c1 (centres unmarked) [Example 1CQ] | 121.2 °C | < 10 nM | < 10 µg/mL | –
32 | CN1C(=O)N(C)C(Cc2ccccc2)C(O)C(O)C1Cc1ccccc1 (centres unmarked) [Example 1W] | 170 to 174 °C | > 1000 nM | – | –
33 | CCCCCCN1C(=O)N(CCCCCC)C(Cc2ccccc2)C(O)C(O)C1Cc1ccccc1 (centres unmarked) [Example 1Y] | 110 to 112 °C | < 10 nM | – | –
34 | CC(C)=CCN1C(=O)N(CC=C(C)C)C(Cc2ccccc2)C(O)C(O)C1Cc1ccccc1 (centres unmarked) [Example 2A] | 165.1 °C | – | – | IC90 (HIV-1 (RF) in MT-2 cells; [2]): < 10 µg/mL; IC90 (HIV-1 (RF) in MT-2 cells; [3]): < 10 µg/mL; Ki (HIV protease; Table 2A, read-out: Ki): < 10 nM; Ki (HIV protease; [4]): < 10 nM
35 | O=C1N(CCCc2ccccc2)C(Cc2ccccc2)C(O)C(O)C(Cc2ccccc2)N1CCCc1ccccc1 (centres unmarked) [Example 2B] | 120.7 °C | – | – | IC90 (HIV-1 (RF) in MT-2 cells; [2]): < 10 µg/mL; IC90 (HIV-1 (RF) in MT-2 cells; [3]): < 10 µg/mL; Ki (HIV protease; Table 2A, read-out: Ki): 10 to 1000 nM; Ki (HIV protease; [4]): 10 to 1000 nM
36 | C=CCN1C(=O)N(CC=C(C)C)C(Cc2ccccc2)C(O)C(O)C1Cc1ccccc1 (centres unmarked) [Example 2C] | 62 °C | – | – | IC90 (HIV-1 (RF) in MT-2 cells; [2]): < 10 µg/mL; IC90 (HIV-1 (RF) in MT-2 cells; [3]): < 10 µg/mL; Ki (HIV protease; Table 2A, read-out: Ki): < 10 nM; Ki (HIV protease; [4]): < 10 nM
37 | C=CCN1C(=O)N(Cc2ccccc2)C(Cc2ccccc2)C(O)C(O)C1Cc1ccccc1 (centres unmarked) [Example 2G] | 226.5 °C | – | – | IC90 (HIV-1 (RF) in MT-2 cells; [2]): < 10 µg/mL; IC90 (HIV-1 (RF) in MT-2 cells; [3]): < 10 µg/mL; Ki (HIV protease; Table 2A, read-out: Ki): < 10 nM; Ki (HIV protease; [4]): < 10 nM
38 | CN1C(=O)N(Cc2ccccc2)C(Cc2ccccc2)C(O)C(O)C1Cc1ccccc1 (centres unmarked) [Example 2H] | 81 °C | – | – | IC90 (HIV-1 (RF) in MT-2 cells; [2]): < 10 µg/mL; IC90 (HIV-1 (RF) in MT-2 cells; [3]): < 10 µg/mL; Ki (HIV protease; Table 2A, read-out: Ki): 10 to 1000 nM; Ki (HIV protease; [4]): 10 to 1000 nM
39 | O=C1N(Cc2cccc(OC(F)(F)F)c2)C(Cc2ccccc2)C(O)C(O)C(Cc2ccccc2)N1Cc1cccc(OC(F)(F)F)c1 (centres unmarked) [Example 2J] | 128.3 °C | – | – | IC90 (HIV-1 (RF) in MT-2 cells; [2]): < 10 µg/mL; IC90 (HIV-1 (RF) in MT-2 cells; [3]): < 10 µg/mL; Ki (HIV protease; Table 2A, read-out: Ki): 10 to 1000 nM; Ki (HIV protease; [4]): 10 to 1000 nM
40 | O=C1N(Cc2ccc(F)c(C(F)(F)F)c2)C(Cc2ccccc2)C(O)C(O)C(Cc2ccccc2)N1Cc1ccc(F)c(C(F)(F)F)c1 (centres unmarked) [Example 2K] | 167.2 °C | – | – | IC90 (HIV-1 (RF) in MT-2 cells; [2]): < 10 µg/mL; IC90 (HIV-1 (RF) in MT-2 cells; [3]): < 10 µg/mL; Ki (HIV protease; Table 2A, read-out: Ki): 10 to 1000 nM; Ki (HIV protease; [4]): 10 to 1000 nM
41 | O=C1N(Cc2ccc(OC(F)(F)F)cc2)C(Cc2ccccc2)C(O)C(O)C(Cc2ccccc2)N1Cc1ccc(OC(F)(F)F)cc1 (centres unmarked) [Example 2L] | 136.8 °C | – | – | IC90 (HIV-1 (RF) in MT-2 cells; [2]): < 10 µg/mL; IC90 (HIV-1 (RF) in MT-2 cells; [3]): < 10 µg/mL; Ki (HIV protease; Table 2A, read-out: Ki): 10 to 1000 nM; Ki (HIV protease; [4]): 10 to 1000 nM
42 | O=C1N(Cc2cc(F)cc(C(F)(F)F)c2)C(Cc2ccccc2)C(O)C(O)C(Cc2ccccc2)N1Cc1cc(F)cc(C(F)(F)F)c1 (centres unmarked) [Example 2M] | 162.3 °C | – | – | Ki (HIV protease; Table 2A, read-out: Ki): 10 to 1000 nM; Ki (HIV protease; [4]): 10 to 1000 nM
